Activity calls are given as the source filed them. The calls are words filed in the database; no cut-off is given here.
Key:
THP-1 [1] = test: Cytotoxicity against human THP1 cells assessed as decrease in cell proliferation after 24 to 48 hrs by MTT assay; format: cell-based
THP-1 [2] = test: Antiinflammatory activity in PMA-treated human THP1 cells assessed as inhibition of LPS-induced TNF-alpha production after 24 hrs by ELISA; format: functional, cell-based; settings: THP-1, 24 h
Mus musculus [3] = test: Analgesic activity in Swiss albino mouse assessed as inhibition of acetic acid-induced abdominal constriction at 10 mg/kg administered for 30 mins followed by acetic acid challenge measured after 30 mins in presence of opioid receptor antagonist naloxone; format: functional, organism-based
Mus musculus [4] = test: Analgesic activity in Swiss albino mouse assessed as inhibition of formalin-induced paw flinching at 10 mg/kg administered for 30 mins followed by formalin challenge measured during 10 to 30 mins post formalin challenge in presence of opioid receptor antagonist naloxone; format: functional, organism-based
Mus musculus [5] = test: Analgesic activity in Swiss albino mouse assessed as inhibition of formalin-induced paw flinching at 10 mg/kg administered for 30 mins followed by formalin challenge measured during 10 to 30 mins post formalin challenge relative to vehicle-treated control; format: functional
Mus musculus [6] = test: Analgesic activity in Swiss albino mouse assessed as inhibition of acetic acid-induced abdominal constriction at 10 mg/kg administered for 30 mins followed by acetic acid challenge measured after 30 mins relative to vehicle-treated control; format: functional; settings: 0.5 h
Mus musculus [7] = test: Acute toxicity in Swiss albino mouse assessed as behavioral abnormality at 50 to 2000 mg/kg after 14 days; format: organism-based; settings: in vivo, 336 h
Mus musculus [8] = test: Analgesic activity in Swiss albino mouse assessed as inhibition of acetic acid-induced abdominal constriction at 10 mg/kg administered for 30 mins followed by acetic acid challenge measured after 30 mins in presence of prostaglandin analogue misoprostol; format: functional, organism-based
THP-1 [9] = test: Antiinflammatory activity in PMA-treated human THP1 cells assessed as inhibition of LPS-induced IL-6 production after 24 hrs by ELISA; format: functional, cell-based; settings: THP-1, 24 h
Mus musculus [10] = test: Analgesic activity in Swiss albino mouse assessed as inhibition of formalin-induced paw flinching at 10 mg/kg administered for 30 mins followed by formalin challenge measured during first 5 mins post formalin challenge; format: functional
Mus musculus [11] = test: Acute toxicity in Swiss albino mouse assessed as effect on myocardium at 2000 mg/kg after 14 days by hematoxylin and eosin staining based assay; format: organism-based; settings: in vivo, 336 h
Mus musculus [12] = test: Acute toxicity in Swiss albino mouse assessed as effect on liver at 2000 mg/kg after 14 days by hematoxylin and eosin staining based assay; format: organism-based; settings: in vivo, 336 h
Mus musculus [13] = test: Analgesic activity in Swiss albino mouse assessed as inhibition of formalin-induced paw flinching at 80 ug/kg administered for 30 mins followed by formalin challenge measured during 10 to 30 mins post formalin challenge; format: functional
Mus musculus [14] = test: Analgesic activity in Swiss albino mouse assessed as inhibition of acetic acid-induced abdominal constriction at 80 ug/kg administered for 30 mins followed by acetic acid challenge measured after 30 mins; format: functional
Mus musculus [15] = test: Analgesic activity in Swiss albino mouse assessed as inhibition of acetic acid-induced abdominal constriction at 100 ug/kg administered for 30 mins followed by acetic acid challenge measured after 30 mins; format: functional

Q: Which IC50 (THP-1 [1]) does the source give for `COc1ccc2c(c1)[C@@]1(C)[C@@H](CO2)CON1C` here?
A: > 100 µM

Q: What about the IC50 (THP-1 [2]) of the same compound?
A: 4.58 µM

Q: What about the inhibition (Mus musculus [3]) of the same compound?
A: inactive

Q: What about the inhibition (Mus musculus [4]) of the same compound?
A: inactive

Q: What about the inhibition in vivo at 10 mg/kg (Mus musculus [5]) of the same compound?
A: 68.3%

Q: And the inhibition in vivo at 10 mg/kg (Mus musculus [6])?
A: 69.4%

Q: What about the Activity (Mus musculus [7]) of the same compound?
A: Non-Toxic

Q: And the inhibition (Mus musculus [8])?
A: Active

Q: And the IC50 (THP-1 [9])?
A: 1.12 µM

Q: What about the inhibition in vivo at 10 mg/kg (Mus musculus [10]) of the same compound?
A: 62.7%

Q: And the Activity (Mus musculus [11])?
A: Non-Toxic

Q: And the Activity (Mus musculus [12])?
A: Non-Toxic

Q: For `C=CCN1CC[C@]23c4c5ccc(O)c4O[C@H]2C(=O)CC[C@@]3(O)[C@H]1C5`, which inhibition (Mus musculus [13]) is on record?
A: inactive

Q: What about the inhibition (Mus musculus [14]) of the same compound?
A: inactive

Q: For `CN[C@@]1(C)c2cc(C)ccc2OC[C@H]1CO`, which inhibition in vivo at 10 mg/kg (Mus musculus [6]) is on record?
A: 59.3%

Q: Which inhibition in vivo at 10 mg/kg (Mus musculus [5]) does the source give for `COc1ccc2c(c1)c(CC(=O)O)c(C)n2C(=O)c1ccc(Cl)cc1` [INDOMETHACIN] here?
A: 50.6%

Q: And the inhibition in vivo at 10 mg/kg (Mus musculus [6])?
A: 56.7%

Q: What about the inhibition (Mus musculus [10]) of the same compound?
A: inactive

Q: `CCCC[C@](C)(O)C/C=C/[C@H]1[C@H](O)CC(=O)[C@@H]1CCCCCCC(=O)OC` was tested. Which inhibition (Mus musculus [15]) did it give?
A: inactive

Q: `CN[C@@]1(C)c2cc(OC)ccc2OC[C@H]1CO` was tested. Which inhibition in vivo at 10 mg/kg (Mus musculus [6]) did it give?
A: 63.2%

Q: `Cc1ccc2c(c1)[C@@]1(C)[C@@H](CO2)CON1C` was tested. Which inhibition in vivo at 10 mg/kg (Mus musculus [6]) did it give?
A: 68.2%
